Earlier results in US7951359B2, “Compositions and methods for therapy or prevention of chemotherapy-induced neuropathy” (Merck Serono SA, priority 2004, dated 2011).

System: CIPN caused by carboplatin/paclitaxel
Details: 2 or 4 μg/kg sub coetaneous daily for 7 days; cited from earlier work

Question: Which “prevention of CIPN” value does the source give for “LIF: Recombinant leukemia inhibitor factor (LIF), another gp130 activator” here?
Answer: ineffective at preventing CIPN
